{"source": "ChEMBL document CHEMBL1201862", "about": "“PubChem BioAssay data set” (2004)", "key": {"[1]": {"target": "T1, Sentrin-specific protease 8 (Homo sapiens, UniProt Q96LD8)", "T1 sequence (Q96LD8 whole entry)": "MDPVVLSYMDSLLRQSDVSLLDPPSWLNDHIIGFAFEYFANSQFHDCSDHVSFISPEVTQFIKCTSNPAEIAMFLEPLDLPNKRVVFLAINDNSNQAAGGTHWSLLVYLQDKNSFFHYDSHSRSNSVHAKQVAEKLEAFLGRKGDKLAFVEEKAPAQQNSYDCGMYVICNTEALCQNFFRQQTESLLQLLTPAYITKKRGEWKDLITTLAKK", "format": "functional"}, "Streptococcus": {"test_system": "Streptococcus", "assay": "GAS UMAA2166 growth inhibition – luminescence, BacTiterGlo, counter-screen for streptokinase expression inhibitor project, dose response (AID 1915);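 note: potency for reduction of bacterial viability or growth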", "format": "functional, organism-based"}, "[2]": {"target": "T2, Heat shock factor protein 1 (Mus musculus, UniProt P38532)", "T2 sequence (P38532 whole entry)": "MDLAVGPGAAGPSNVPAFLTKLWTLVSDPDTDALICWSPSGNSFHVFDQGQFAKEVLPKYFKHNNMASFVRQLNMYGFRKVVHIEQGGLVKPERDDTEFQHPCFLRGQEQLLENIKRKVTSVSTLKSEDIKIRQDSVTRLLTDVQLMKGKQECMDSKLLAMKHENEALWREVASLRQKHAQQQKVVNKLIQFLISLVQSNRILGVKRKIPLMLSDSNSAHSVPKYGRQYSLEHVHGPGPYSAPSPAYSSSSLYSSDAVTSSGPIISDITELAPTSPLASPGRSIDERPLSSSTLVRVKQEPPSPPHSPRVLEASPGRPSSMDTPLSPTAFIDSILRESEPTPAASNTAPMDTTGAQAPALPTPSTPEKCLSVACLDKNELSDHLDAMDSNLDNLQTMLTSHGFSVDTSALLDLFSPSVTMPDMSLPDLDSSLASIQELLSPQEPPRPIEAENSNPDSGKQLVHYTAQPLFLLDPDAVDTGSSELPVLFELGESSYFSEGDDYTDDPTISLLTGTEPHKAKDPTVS", "assay": "decrease of HSF1-responsive luciferase luminescence – cell-based, NIH3T3, dose retest, confirmation (AID 2382);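 note: NIH3T3 fibroblasts with HSF1-driven luciferase reporter stressed by proteasome inhibitor MG132; luminescence from HSF1-driven luciferase expression after 8 hours of MG132 stress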", "format": "functional"}, "[3]": {"target": "T3, Sentrin-specific protease 6 (Homo sapiens, UniProt Q9GZR1)", "T3 sequence (Q9GZR1 whole entry)": "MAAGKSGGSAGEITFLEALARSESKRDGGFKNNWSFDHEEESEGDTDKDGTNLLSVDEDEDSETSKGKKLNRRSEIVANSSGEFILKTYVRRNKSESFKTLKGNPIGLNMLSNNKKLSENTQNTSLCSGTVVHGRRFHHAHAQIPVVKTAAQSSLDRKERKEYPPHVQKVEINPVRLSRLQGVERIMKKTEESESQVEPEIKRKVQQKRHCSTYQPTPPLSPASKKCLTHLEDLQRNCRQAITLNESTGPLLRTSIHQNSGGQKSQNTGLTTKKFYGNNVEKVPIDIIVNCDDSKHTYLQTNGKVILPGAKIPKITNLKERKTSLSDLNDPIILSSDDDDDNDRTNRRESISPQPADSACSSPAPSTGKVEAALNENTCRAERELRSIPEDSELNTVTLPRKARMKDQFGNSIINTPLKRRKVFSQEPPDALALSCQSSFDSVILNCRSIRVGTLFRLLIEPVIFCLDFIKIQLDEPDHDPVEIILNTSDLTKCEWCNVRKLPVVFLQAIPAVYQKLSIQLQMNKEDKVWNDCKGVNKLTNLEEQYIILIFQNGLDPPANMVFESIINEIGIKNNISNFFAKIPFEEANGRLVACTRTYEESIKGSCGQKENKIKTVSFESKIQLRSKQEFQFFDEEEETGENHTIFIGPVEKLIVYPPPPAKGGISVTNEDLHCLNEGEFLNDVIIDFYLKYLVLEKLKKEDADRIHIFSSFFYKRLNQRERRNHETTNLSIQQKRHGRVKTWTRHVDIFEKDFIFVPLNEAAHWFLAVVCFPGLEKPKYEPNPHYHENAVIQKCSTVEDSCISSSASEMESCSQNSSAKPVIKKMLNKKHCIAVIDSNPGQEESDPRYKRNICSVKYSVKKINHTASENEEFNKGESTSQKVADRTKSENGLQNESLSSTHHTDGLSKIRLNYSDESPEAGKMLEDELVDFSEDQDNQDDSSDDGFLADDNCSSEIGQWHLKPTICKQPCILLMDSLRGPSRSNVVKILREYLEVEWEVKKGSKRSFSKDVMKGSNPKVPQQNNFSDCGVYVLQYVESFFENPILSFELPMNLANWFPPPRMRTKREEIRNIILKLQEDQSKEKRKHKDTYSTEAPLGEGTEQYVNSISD", "format": "functional"}, "[4]": {"assay": "NIH-3T3 fibroblast cytotoxicity, dose response, cytotoxicity control, cell-based, fluorescence, Alamar Blue, secondary assay (AID 2327);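 note: NIH-3T3 mouse fibroblasts cultured with fluconazole at 8 µg/mL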", "format": "functional"}, "[5]": {"assay": "Trypanosoma cruzi growth suppression in host cells – NIH3T3 host cells, beta-gal luminescence, confirmation (AID 2044);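 note: intracellular parasites grown in NIH/3T3 mouse fibroblasts as host cells; luminescent beta-galactosidase reporter signal from transgenic T. cruzi replicating inside host cells; inhibitors lower the luminescence signal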", "format": "functional, cell-based"}, "HEK293 [6]": {"test_system": "HEK293", "assay": "SAR Analysis of small molecule inhibitors of T-cell specific antigen receptor-induced NF-kB activation in a HEK-293T cell line using a luminescence assay - Set 2. [Related pubchem assays (depositor defined):AID435003, AID435012, AID489026]", "format": "functional, cell-based", "conditions": "Homo sapiens"}, "BJ": {"test_system": "BJ", "assay": "BJ-TERT-LT-ST fibroblast viability loss – cell-based, RAS-independent, luminescence, dose response (AID 1935);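 note: BJ fibroblasts immortalized with TERT plus LT and ST oncogenes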", "format": "functional", "conditions": "Homo sapiens"}, "HEK293 [7]": {"test_system": "HEK293", "assay": "HEK293T cell viability loss, resazurin readout – resazurin fluorescence, cytotoxicity control for NF-kB activator project, SAR follow-up (AID 493251)", "format": "functional, cell-based", "conditions": "Homo sapiens"}, "INS1": {"test_system": "INS1", "assay": "INS-1E survival protection against cytokine death – cell-based, luminescence, retest, dose response (AID 449756);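 note: cell death triggered by IL-1 beta plus TNF-alpha plus IFN-gamma mixture; protective hits raise ATP signal compared with cytokine alone wells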", "format": "functional", "conditions": "Rattus norvegicus"}, "[8]": {"assay": "loss of viability in HepG2 cells – cell-based, CellTiter-Glo, cherry-picked, cytotoxicity control for Shn3 inhibitor project, dose response (AID 624134)", "format": "functional"}}, "note": "The source made the active and inactive calls.", "data": [{"compound": "CCOc1cccc(/C=N/NC(=S)Nc2ccccc2[N+](=O)[O-])c1O", "values": [{"measurement": "IC50", "setting": "[1]", "value": "12.8 µM (active)"}, {"measurement": "EC50", "setting": "Streptococcus", "value": "4.18 µM (active)"}, {"measurement": "EC50", "setting": "[2]", "value": "3.56 µM (active)"}, {"measurement": "IC50", "setting": "[3]", "value": "10.3 µM (active)"}]}, {"compound": "CCCCC(=O)NC(c1ccc(N(CC)CC)cc1)c1ccc2cccnc2c1O", "note": "(stereo unspecified)", "values": [{"measurement": "EC50", "setting": "[4]", "value": "18.1 µM (inconclusive)"}, {"measurement": "EC50", "setting": "[5]", "value": "< 0.1 µM (active)"}, {"measurement": "IC50", "setting": "HEK293 [6]", "value": "13 µM (active)"}, {"measurement": "EC50", "setting": "BJ", "value": "1.79 µM (active)"}, {"measurement": "IC50", "setting": "HEK293 [7]", "value": "35 µM (inactive)"}, {"measurement": "AC50", "setting": "INS1", "value": "0.38 µM (active)"}, {"measurement": "AC50", "setting": "[8]", "value": "1.2 µM (active)"}]}]}
